Paper PMC9683047, “Design, synthesis and biological evaluation of 4-aminoquinoline derivatives as receptor-interacting protein kinase 2 (RIPK2) inhibitors” (Journal of Enzyme Inhibition and Medicinal Chemistry, 2022)

Tests used:
CDK6/cyclinD3(h) = target: T1, CDK6/cyclinD3(h) (Homo sapiens, UniProt Q00534); assay: Kinase selectivity panel: CDK6/cyclinD3; type: biochemical
T1 construct: purchased Eurofins (Millipore) KinaseProfiler Diversity Panel
Experimental: (§1) To confirm the anti-inflammatory effect was caused by RIPK2 inhibition, compound 14 was subjected to kinase selectivity evaluation (Figure 4). Kinase selectivity profile of compound 14 as shown by the diversity kinase Panel screen against 70 kinases assayed at 1 µM. Among all tested 70 kinases, only five were inhibited over 90% at 1 µM including Fyn, Lyn, BTK, Abl and RIPK2. Three kinases including KDR, CDK9 and LOK were inhibited 50–90% at 1 µM.

AO oxidase = target: T2, AO oxidase (Homo sapiens, UniProt Q06278); assay: AO oxidative metabolism in human liver cytosol; type: in vitro ADME; settings: human liver cytosol incubation; inhibitors raloxifene and menadione
T2 construct: could undergo mono oxidative metabolism in the human liver cytosol incubation system; from tissue; host or cells: human liver cytosol
Experimental: However, we have done experiment on AO oxidative metabolism of compound 14 and P5. Both compound 14 and P5 could undergo mono oxidative metabolism in the human liver cytosol incubation system.

TBK1(h) = target: T3, TBK1(h) (Homo sapiens, UniProt Q9UHD2); assay: Kinase selectivity panel: TBK1; type: biochemical
T3 construct: purchased Eurofins (Millipore) KinaseProfiler Diversity Panel
Experimental: as §1

PI3 Kinase (p120g)(h) = target: T4, PI3 Kinase (p120g)(h) (Homo sapiens, UniProt P48736); assay: Kinase selectivity panel: PI3 Kinase (p120g); type: biochemical; settings: 1 µM
T4 construct: purchased Eurofins (Millipore) KinaseProfiler Diversity Panel
Experimental: as §1

MEK1(h) = target: T5, MEK1(h) (Homo sapiens, UniProt Q02750); assay: Kinase selectivity panel: MEK1; type: biochemical; settings: 1 µM
T5 construct: purchased Eurofins (Millipore) KinaseProfiler Diversity Panel
Experimental: as §1

CDK1/cyclinB(h) = target: T6, CDK1/cyclinB(h) (Homo sapiens, UniProt P06493); assay: Kinase selectivity panel: CDK1/cyclinB; type: biochemical
T6 construct: purchased Eurofins (Millipore) KinaseProfiler Diversity Panel
Experimental: as §1

GSK3β(h) = target: T7, GSK3β(h) (Homo sapiens, UniProt P49841); assay: Kinase selectivity panel: GSK3β; type: biochemical; settings: 1 µM
T7 construct: purchased Eurofins (Millipore) KinaseProfiler Diversity Panel
Experimental: as §1

CDK7/cyclinH/MAT1(h) = target: T8, CDK7/cyclinH/MAT1(h) (Homo sapiens, UniProt P50613); assay: Kinase selectivity panel: CDK7/cyclinH/MAT1; type: biochemical
T8 construct: purchased Eurofins (Millipore) KinaseProfiler Diversity Panel
Experimental: as §1

TAK1(h) = target: T9, TAK1(h) (Homo sapiens, UniProt O43318); assay: Kinase selectivity panel: TAK1; type: biochemical; settings: 1 µM
T9 construct: purchased Eurofins (Millipore) KinaseProfiler Diversity Panel
Experimental: as §1

p70S6K(h) = target: T10, p70S6K(h) (Homo sapiens, UniProt P23443); assay: Kinase selectivity panel: p70S6K; type: biochemical
T10 construct: purchased Eurofins (Millipore) KinaseProfiler Diversity Panel
Experimental: as §1

EphA5(h) = target: T11, EphA5(h) (Homo sapiens, UniProt P54756); assay: Kinase selectivity panel: EphA5; type: biochemical; settings: 1 µM
T11 construct: purchased Eurofins (Millipore) KinaseProfiler Diversity Panel
Experimental: as §1

Itk(h) = target: T12, Itk(h) (Homo sapiens, UniProt Q08881); assay: Kinase selectivity panel: Itk; type: biochemical
T12 construct: purchased Eurofins (Millipore) KinaseProfiler Diversity Panel
Experimental: as §1

PKG1α(h) = target: T13, PKG1α(h) (Homo sapiens, UniProt Q13976); assay: Kinase selectivity panel: PKG1α; type: biochemical
T13 construct: purchased Eurofins (Millipore) KinaseProfiler Diversity Panel
Experimental: as §1

ASK1(h) = target: T14, ASK1(h) (Homo sapiens, UniProt Q99683); assay: Kinase selectivity panel: ASK1; type: biochemical
T14 construct: purchased Eurofins (Millipore) KinaseProfiler Diversity Panel
Experimental: as §1

CHK1(h) = target: T15, CHK1(h) (Homo sapiens, UniProt O14757); assay: Kinase selectivity panel: CHK1; type: biochemical
T15 construct: purchased Eurofins (Millipore) KinaseProfiler Diversity Panel
Experimental: as §1

RIPK2 = target: T16, RIPK2 (Homo sapiens, UniProt O43353); assay: Lipophilic ligand efficiency (LipE); settings: LipE = pIC50 − ClogP
T16 construct: purchased Promega

IKKε(h) = target: T17, IKKε(h) (Homo sapiens, UniProt Q14164); assay: Kinase selectivity panel: IKKε; type: biochemical
T17 construct: purchased Eurofins (Millipore) KinaseProfiler Diversity Panel
Experimental: as §1

KDR(h) = target: T18, KDR(h) (Homo sapiens, UniProt P35968); assay: Kinase selectivity panel: KDR; type: biochemical; set-up: KDR(h), 14 @ 1 µM: unit not given here
T18 construct: purchased Eurofins (Millipore) KinaseProfiler Diversity Panel
Experimental: as §1

c-RAF(h) = target: T19, c-RAF(h) (Homo sapiens, UniProt P04049); assay: Kinase selectivity panel: c-RAF; type: biochemical
T19 construct: purchased Eurofins (Millipore) KinaseProfiler Diversity Panel
Experimental: as §1

MAPKAP-K2(h) = target: T20, MAPKAP-K2(h) (Homo sapiens, UniProt P49137); assay: Kinase selectivity panel: MAPKAP-K2; type: biochemical; settings: 1 µM
T20 construct: purchased Eurofins (Millipore) KinaseProfiler Diversity Panel
Experimental: as §1

mTOR(h) = target: T21, mTOR(h) (Homo sapiens, UniProt P42345); assay: Kinase selectivity panel: mTOR; type: biochemical
T21 construct: purchased Eurofins (Millipore) KinaseProfiler Diversity Panel
Experimental: as §1

[1] = target: T22, PI3 Kinase (p110b/p85a)(h) (Homo sapiens, UniProt P42338); assay: Kinase selectivity panel: PI3 Kinase (p110b/p85a); type: biochemical
T22 construct: purchased Eurofins (Millipore) KinaseProfiler Diversity Panel
Experimental: as §1

AMPKα1(h) = target: T23, AMPKα1(h) (Homo sapiens, UniProt Q13131); assay: Kinase selectivity panel: AMPKα1; type: biochemical
T23 construct: purchased Eurofins (Millipore) KinaseProfiler Diversity Panel
Experimental: as §1

RIPK2(h) = target: T24, RIPK2(h) (Homo sapiens, UniProt O43353); assay: Kinase selectivity panel: RIPK2; type: biochemical
T24 construct: purchased Eurofins (Millipore) KinaseProfiler Diversity Panel
Experimental: as §1

MSK2(h) = target: T25, MSK2(h) (Homo sapiens, UniProt O75676); assay: Kinase selectivity panel: MSK2; type: biochemical
T25 construct: purchased Eurofins (Millipore) KinaseProfiler Diversity Panel
Experimental: as §1

CK1γ1(h) = target: T26, CK1γ1(h) (Homo sapiens, UniProt Q9HCP0); assay: Kinase selectivity panel: CK1γ1; type: biochemical; settings: 1 µM
T26 construct: purchased Eurofins (Millipore) KinaseProfiler Diversity Panel
Experimental: as §1

[2] = target: T27, PI3 Kinase (p110d/p85a)(h) (Homo sapiens, UniProt O00329); assay: Kinase selectivity panel: PI3 Kinase (p110d/p85a); type: biochemical; settings: 1 µM
T27 construct: purchased Eurofins (Millipore) KinaseProfiler Diversity Panel
Experimental: as §1

CK2α2(h) = target: T28, CK2α2(h) (Homo sapiens, UniProt P19784); assay: Kinase selectivity panel: CK2α2; type: biochemical
T28 construct: purchased Eurofins (Millipore) KinaseProfiler Diversity Panel
Experimental: as §1

PDGFRβ(h) = target: T29, PDGFRβ(h) (Homo sapiens, UniProt P09619); assay: Kinase selectivity panel: PDGFRβ; type: biochemical
T29 construct: purchased Eurofins (Millipore) KinaseProfiler Diversity Panel
Experimental: as §1

PKA(h) = target: T30, PKA(h) (Homo sapiens, UniProt P17612); assay: Kinase selectivity panel: PKA; type: biochemical; settings: 1 µM
T30 construct: purchased Eurofins (Millipore) KinaseProfiler Diversity Panel
Experimental: as §1

eEF-2K(h) = target: T31, eEF-2K(h) (Homo sapiens, UniProt O00418); assay: Kinase selectivity panel: eEF-2K; type: biochemical
T31 construct: purchased Eurofins (Millipore) KinaseProfiler Diversity Panel
Experimental: as §1

IKKα(h) = target: T32, IKKα(h) (Homo sapiens, UniProt O15111); assay: Kinase selectivity panel: IKKα; type: biochemical
T32 construct: purchased Eurofins (Millipore) KinaseProfiler Diversity Panel
Experimental: as §1

IRAK1(h) = target: T33, IRAK1(h) (Homo sapiens, UniProt P51617); assay: Kinase selectivity panel: IRAK1; type: biochemical
T33 construct: purchased Eurofins (Millipore) KinaseProfiler Diversity Panel
Experimental: as §1

Rsk1(h) = target: T34, Rsk1(h) (Homo sapiens, UniProt Q15418); assay: Kinase selectivity panel: Rsk1; type: biochemical; settings: 1 µM
T34 construct: purchased Eurofins (Millipore) KinaseProfiler Diversity Panel
Experimental: as §1

Abl(h) = target: T35, Abl(h) (Homo sapiens, UniProt P00519); assay: Kinase selectivity panel: Abl; type: biochemical
T35 construct: purchased Eurofins (Millipore) KinaseProfiler Diversity Panel
Experimental: as §1

Plk3(h) = target: T36, Plk3(h) (Homo sapiens, UniProt Q9H4B4); assay: Kinase selectivity panel: Plk3; type: biochemical; settings: 1 µM
T36 construct: purchased Eurofins (Millipore) KinaseProfiler Diversity Panel
Experimental: as §1

JAK3(h) = target: T37, JAK3(h) (Homo sapiens, UniProt P52333); assay: Kinase selectivity panel: JAK3; type: biochemical; settings: 1 µM
T37 construct: purchased Eurofins (Millipore) KinaseProfiler Diversity Panel
Experimental: as §1

Pim-1(h) = target: T38, Pim-1(h) (Homo sapiens, UniProt P11309); assay: Kinase selectivity panel: Pim-1; type: biochemical
T38 construct: purchased Eurofins (Millipore) KinaseProfiler Diversity Panel
Experimental: as §1

T24 sequence (O43353 whole entry): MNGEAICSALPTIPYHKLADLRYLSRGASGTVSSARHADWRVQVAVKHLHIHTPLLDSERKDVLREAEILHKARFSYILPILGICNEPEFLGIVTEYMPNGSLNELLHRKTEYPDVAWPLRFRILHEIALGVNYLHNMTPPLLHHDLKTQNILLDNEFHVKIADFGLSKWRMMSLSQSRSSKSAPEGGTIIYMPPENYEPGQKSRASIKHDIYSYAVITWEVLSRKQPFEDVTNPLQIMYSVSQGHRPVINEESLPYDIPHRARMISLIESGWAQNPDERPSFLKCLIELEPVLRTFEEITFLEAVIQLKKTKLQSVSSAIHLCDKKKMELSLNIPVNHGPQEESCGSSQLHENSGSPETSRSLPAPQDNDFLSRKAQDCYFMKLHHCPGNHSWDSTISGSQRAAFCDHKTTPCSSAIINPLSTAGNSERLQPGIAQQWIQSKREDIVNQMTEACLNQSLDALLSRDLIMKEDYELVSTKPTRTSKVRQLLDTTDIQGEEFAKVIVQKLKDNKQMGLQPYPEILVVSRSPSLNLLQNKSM
T18 sequence (P35968 20-1356): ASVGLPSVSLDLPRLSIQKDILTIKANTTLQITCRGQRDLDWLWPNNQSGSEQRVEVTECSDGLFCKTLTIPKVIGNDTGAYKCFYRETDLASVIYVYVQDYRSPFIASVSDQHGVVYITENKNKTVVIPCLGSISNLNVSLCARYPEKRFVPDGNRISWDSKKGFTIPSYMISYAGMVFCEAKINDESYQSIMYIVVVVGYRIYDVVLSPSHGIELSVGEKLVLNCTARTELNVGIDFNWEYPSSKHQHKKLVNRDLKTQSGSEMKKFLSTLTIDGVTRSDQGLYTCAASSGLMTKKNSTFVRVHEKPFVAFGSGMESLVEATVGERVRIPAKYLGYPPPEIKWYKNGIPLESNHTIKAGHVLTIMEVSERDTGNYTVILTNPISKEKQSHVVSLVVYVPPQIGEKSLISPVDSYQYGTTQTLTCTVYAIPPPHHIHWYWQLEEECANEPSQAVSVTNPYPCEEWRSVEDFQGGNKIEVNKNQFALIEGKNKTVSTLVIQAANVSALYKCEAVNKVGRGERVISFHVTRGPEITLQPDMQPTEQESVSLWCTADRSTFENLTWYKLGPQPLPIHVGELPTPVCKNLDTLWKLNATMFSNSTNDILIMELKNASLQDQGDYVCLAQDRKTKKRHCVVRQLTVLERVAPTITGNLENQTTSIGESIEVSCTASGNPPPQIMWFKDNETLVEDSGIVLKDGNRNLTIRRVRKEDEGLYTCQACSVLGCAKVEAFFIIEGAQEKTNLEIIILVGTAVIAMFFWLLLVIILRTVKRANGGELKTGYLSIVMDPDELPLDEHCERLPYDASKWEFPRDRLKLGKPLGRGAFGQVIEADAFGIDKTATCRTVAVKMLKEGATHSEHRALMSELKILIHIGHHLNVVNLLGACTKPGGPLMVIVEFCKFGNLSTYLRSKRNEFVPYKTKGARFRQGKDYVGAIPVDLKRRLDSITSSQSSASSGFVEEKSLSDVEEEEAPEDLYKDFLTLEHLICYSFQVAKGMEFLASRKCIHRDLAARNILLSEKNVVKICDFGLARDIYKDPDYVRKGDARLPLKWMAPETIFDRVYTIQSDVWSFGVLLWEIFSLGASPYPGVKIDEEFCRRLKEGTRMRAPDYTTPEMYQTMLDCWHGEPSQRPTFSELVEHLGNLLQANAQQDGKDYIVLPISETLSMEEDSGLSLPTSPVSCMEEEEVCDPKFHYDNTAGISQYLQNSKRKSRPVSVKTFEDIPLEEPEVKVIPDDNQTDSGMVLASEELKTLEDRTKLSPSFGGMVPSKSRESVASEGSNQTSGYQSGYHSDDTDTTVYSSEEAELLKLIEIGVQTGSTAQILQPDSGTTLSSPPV
T35 sequence (P00519 whole entry): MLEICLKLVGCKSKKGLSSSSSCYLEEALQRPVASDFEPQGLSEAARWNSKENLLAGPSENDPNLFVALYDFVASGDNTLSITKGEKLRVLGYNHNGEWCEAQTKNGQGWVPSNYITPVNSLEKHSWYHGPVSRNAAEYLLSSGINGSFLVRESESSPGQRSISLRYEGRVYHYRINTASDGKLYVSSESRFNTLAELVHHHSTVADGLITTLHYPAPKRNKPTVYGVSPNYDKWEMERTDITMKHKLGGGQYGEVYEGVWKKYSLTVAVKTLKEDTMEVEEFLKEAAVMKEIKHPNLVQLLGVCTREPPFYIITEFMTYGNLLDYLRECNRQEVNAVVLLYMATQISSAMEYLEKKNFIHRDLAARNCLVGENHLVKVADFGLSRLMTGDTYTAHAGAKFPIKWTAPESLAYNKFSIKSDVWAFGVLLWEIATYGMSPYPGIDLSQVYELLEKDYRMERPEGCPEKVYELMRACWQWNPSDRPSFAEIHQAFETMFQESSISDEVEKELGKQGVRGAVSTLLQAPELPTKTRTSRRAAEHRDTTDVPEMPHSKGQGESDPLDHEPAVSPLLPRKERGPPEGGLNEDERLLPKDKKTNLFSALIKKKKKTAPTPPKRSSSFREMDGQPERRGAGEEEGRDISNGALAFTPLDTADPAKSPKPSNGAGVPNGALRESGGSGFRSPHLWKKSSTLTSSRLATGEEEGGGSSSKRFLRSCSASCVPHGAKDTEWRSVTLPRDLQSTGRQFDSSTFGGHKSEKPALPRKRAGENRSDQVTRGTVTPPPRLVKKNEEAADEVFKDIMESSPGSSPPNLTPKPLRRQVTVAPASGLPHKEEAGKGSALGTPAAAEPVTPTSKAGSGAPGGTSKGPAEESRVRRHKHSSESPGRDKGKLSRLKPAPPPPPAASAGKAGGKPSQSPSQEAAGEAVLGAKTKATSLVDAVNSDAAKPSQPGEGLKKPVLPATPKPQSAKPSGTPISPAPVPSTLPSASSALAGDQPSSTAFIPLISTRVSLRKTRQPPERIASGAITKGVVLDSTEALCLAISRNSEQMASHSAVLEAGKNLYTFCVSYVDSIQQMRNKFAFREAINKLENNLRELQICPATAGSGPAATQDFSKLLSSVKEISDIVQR
T38 sequence (P11309 whole entry): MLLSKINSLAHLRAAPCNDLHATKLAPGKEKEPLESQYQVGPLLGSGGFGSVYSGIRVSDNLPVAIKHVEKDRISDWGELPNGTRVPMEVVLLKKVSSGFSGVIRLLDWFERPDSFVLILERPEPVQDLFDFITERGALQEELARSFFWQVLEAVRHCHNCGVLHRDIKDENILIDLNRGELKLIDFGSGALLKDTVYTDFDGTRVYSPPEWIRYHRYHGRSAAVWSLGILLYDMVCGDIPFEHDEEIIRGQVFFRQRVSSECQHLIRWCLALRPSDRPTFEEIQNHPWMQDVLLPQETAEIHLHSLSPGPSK
T23 sequence (Q13131 whole entry): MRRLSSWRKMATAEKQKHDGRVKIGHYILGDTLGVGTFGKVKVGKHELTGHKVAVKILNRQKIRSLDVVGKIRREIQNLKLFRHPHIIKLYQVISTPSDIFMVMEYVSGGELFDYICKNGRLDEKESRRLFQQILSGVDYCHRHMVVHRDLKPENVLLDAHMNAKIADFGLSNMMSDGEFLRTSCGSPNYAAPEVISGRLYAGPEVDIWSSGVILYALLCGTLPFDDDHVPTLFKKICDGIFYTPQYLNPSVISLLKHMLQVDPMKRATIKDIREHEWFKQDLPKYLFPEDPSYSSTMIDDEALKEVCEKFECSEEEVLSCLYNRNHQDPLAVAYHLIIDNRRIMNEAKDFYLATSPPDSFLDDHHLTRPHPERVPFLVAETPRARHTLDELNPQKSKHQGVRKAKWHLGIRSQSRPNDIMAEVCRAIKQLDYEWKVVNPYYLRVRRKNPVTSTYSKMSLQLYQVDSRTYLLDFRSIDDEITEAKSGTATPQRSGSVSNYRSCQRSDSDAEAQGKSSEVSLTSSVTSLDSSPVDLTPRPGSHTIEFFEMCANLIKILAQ
T23 sequence (Q9Y478 whole entry partner): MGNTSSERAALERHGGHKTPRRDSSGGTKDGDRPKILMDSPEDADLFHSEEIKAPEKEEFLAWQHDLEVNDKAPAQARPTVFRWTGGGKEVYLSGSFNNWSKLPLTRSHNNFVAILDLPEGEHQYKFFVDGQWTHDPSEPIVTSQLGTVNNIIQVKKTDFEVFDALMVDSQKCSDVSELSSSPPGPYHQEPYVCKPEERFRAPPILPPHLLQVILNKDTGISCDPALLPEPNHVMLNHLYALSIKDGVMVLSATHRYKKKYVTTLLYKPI
T23 sequence (P54619 whole entry partner): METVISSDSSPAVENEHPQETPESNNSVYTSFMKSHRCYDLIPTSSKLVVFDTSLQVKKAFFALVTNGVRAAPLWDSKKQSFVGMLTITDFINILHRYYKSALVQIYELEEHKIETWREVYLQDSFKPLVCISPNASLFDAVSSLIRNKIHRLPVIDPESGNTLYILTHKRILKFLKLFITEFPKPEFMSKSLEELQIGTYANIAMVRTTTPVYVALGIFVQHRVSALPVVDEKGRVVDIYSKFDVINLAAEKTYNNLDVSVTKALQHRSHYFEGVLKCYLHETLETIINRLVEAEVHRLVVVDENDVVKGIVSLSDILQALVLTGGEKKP
T16 sequence (O43353 whole entry): as the sequence (O43353 whole entry) above
T10 sequence (P23443 whole entry): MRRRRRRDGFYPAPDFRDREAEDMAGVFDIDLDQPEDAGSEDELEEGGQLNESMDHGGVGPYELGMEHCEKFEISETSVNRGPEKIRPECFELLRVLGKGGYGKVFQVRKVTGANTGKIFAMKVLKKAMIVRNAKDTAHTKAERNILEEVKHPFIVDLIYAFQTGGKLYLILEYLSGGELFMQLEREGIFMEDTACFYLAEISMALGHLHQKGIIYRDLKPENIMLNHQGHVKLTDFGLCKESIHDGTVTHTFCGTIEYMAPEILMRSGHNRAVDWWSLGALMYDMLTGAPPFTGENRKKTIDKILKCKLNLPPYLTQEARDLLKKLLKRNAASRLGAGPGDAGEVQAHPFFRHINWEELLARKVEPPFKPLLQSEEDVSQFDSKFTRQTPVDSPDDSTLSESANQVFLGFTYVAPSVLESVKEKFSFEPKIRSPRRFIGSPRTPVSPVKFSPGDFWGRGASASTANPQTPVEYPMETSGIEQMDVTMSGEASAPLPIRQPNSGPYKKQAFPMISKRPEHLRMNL

With `c1cc(-c2ccc3nccc(Nc4ccc5scnc5c4)c3c2)ccn1` [Compound 14, N-(6-(pyridin-4-yl)quinolin-4-yl)benzo[d]thiazol-5-amine] the “Remaining kinase activity (%) at 1 µM” value (CDK6/cyclinD3(h)) was 100, the AO oxidase substrate (AO oxidase) was “metabolic substrates of AO oxidase” and the “TBK1 remaining activity (%) with compound 14 at 1 µM” value (TBK1(h)) was 97. For the same compound, the “Remaining kinase activity (% of control)” value (PI3 Kinase (p120g)(h)) was 79, the “% remaining MEK1 activity” value (MEK1(h)) was 105 and the “CDK1/cyclinB remaining activity (% of control) with compound 14 at 1 µM” value (CDK1/cyclinB(h)) was 90. For the same compound, the “remaining kinase activity (%)” value (GSK3β(h)) was 75, the “CDK7/cyclinH/MAT1(h), 14 @ 1 µM” value (CDK7/cyclinH/MAT1(h)) was 83 and the “Remaining kinase activity (% of control)” value (TAK1(h)) was 90. For the same compound, the “Remaining kinase activity (% of control) at 1 µM compound 14” value (p70S6K(h)) was 95, the “Remaining kinase activity (% of control)” value (EphA5(h)) was 96 and the “Remaining Itk kinase activity (%) with compound 14 at 1 µM” value (Itk(h)) was 78. For the same compound, the “Remaining PKG1α activity (% of control) with compound 14 at 1 µM” value (PKG1α(h)) was 64, the “ASK1 remaining activity (% of control) with compound 14 at 1 µM” value (ASK1(h)) was 87 and the “CHK1 remaining activity (% of control) at 1 µM” value (CHK1(h)) was 100. For the same compound, the LipE (RIPK2) was 4.40, the “Remaining IKKε activity at 1 µM (% of control)” value (IKKε(h)) was 106 and the “KDR(h), 14 @ 1 µM” value (KDR(h); 1 µM) was 11. For the same compound, the inhibition at 1 µM (KDR(h); at 1 µM) was 50 to 90%, the “c-RAF remaining activity (% of control) with compound 14 at 1 µM” value (c-RAF(h)) was 65 and the “percent remaining MAPKAP-K2 activity” value (MAPKAP-K2(h)) was 95. The “% remaining mTOR activity with compound 14 at 1 µM” value (mTOR(h)) was 106, the “remaining kinase activity (% of control) with compound 14 at 1 µM” value [1] was 88 and the “Remaining kinase activity (%) with compound 14 at 1 µM” value (AMPKα1(h)) was 103. The “RIPK2 remaining activity (% of control)” value (RIPK2(h); 1 µM) was 3, the inhibition at 1 µM (RIPK2(h); at 1 µM) was greater than 90% and the “MSK2 remaining kinase activity (% of control) with compound 14 at 1 µM” value (MSK2(h)) was 107. The “Remaining kinase activity (% of control)” value (CK1γ1(h)) was 93, the “Remaining kinase activity (% of control)” value [2] was 54 and the “Remaining CK2α2 kinase activity (%) with compound 14 at 1 µM” value (CK2α2(h)) was 104. The “Remaining kinase activity at 1 µM (% of control)” value (PDGFRβ(h)) was 64, the “Remaining kinase activity (% of control)” value (PKA(h)) was 117 and the “remaining kinase activity (% of control) with compound 14 at 1 µM” value (eEF-2K(h)) was 102. The “Remaining IKKα activity at 1 µM (% of control)” value (IKKα(h)) was 104, the “IRAK1 remaining activity (% of control) with compound 14 at 1 µM” value (IRAK1(h)) was 91 and the “Rsk1 kinase activity remaining (% of control)” value (Rsk1(h)) was 98. For the same compound, the “Abl remaining activity (% of control)” value (Abl(h); 1 µM) was 9, the inhibition at 1 µM (Abl(h); at 1 µM) was greater than 90% and the “remaining Plk3 kinase activity (% of control)” value (Plk3(h)) was 86. The “Remaining kinase activity (% of control)” value (JAK3(h)) was 100 and the “remaining kinase activity (% of control) with compound 14 at 1 µM” value (Pim-1(h)) was 78.
